In brackets after ≈: the same amount, converted by molar mass. Activity calls are given as the source filed them. No rule for the calls is given here.
Each compound was assayed on KB (assay: Cytotoxicity against human KB cells). Conditions: read-out: ED50 (the source's name).
Type: functional

Compound	EC50
COc1cc(OC)c2c(=O)c(OC)c(-c3ccc(OC)c(OC)c3)oc2c1	25 µg/mL (≈ 67.1 µM)
COc1ccc(-c2cc(=O)c3cc(OC)c(OC)cc3o2)cc1O	2 µg/mL (≈ 6.09 µM)
COC1(O)C(=O)c2ccccc2OC1(OC)c1ccccc1 (stereo unspecified)	34 µg/mL (≈ 113 µM)
COc1cc(O)c2c(c1)OC(c1ccc(O)cc1)CC2=O (stereo unspecified)	13 µg/mL (≈ 45.4 µM)
C[C@@H]1O[C@@H](OC[C@H]2O[C@@H](Oc3c(-c4ccc(O)c(O)c4)oc4cc(O)cc(O)c4c3=O)[C@H](O)[C@@H](O)[C@@H]2O)[C@H](O)[C@H](O)[C@H]1O.Cl	> 100 µg/mL
COc1c(O)cc2oc(-c3ccc(O)cc3)cc(=O)c2c1O [HISPIDULIN]	22 µg/mL (≈ 73.3 µM)
O=c1cc(-c2ccccc2)oc2cc(F)ccc12 [7-FLUOROFLAVONE]	22 µg/mL (≈ 91.6 µM)
COc1ccc(-c2oc3cc(O)cc(O)c3c(=O)c2O)cc1 [KAEMPFERIDE]	20 µg/mL (≈ 66.6 µM)
COc1cc2c(=O)cc(-c3ccc(OC)c(OC)c3)oc2cc1O	45 µg/mL (≈ 137 µM)
O=c1cc(-c2ccc(O)c(O)c2)oc2c([C@@H]3O[C@H](CO)[C@@H](O)[C@H](O)[C@H]3O)c(O)cc(O)c12 [ORIENTIN]	25 µg/mL (≈ 55.8 µM)
O=c1c(O)c(-c2ccccc2)oc2cc(O)cc(O)c12 [GALANGIN]	> 100 µg/mL
Cc1ccc(-c2oc3ccc(Cl)cc3c(=O)c2Cl)c(C(C)C)c1	22 µg/mL (≈ 63.4 µM)
COc1cc(O)c2c(=O)cc(-c3ccc(OC)c(O)c3)oc2c1	19 µg/mL (≈ 60.5 µM)
COc1cc(O)c(C2CC(=O)c3c(O)cc(O[C@@H]4O[C@H](CO[C@@H]5O[C@@H](C)[C@H](O)[C@@H](O)[C@H]5O)[C@@H](O)[C@H](O)[C@H]4O)cc3O2)cc1O (stereo partly specified)	> 100 µg/mL
O=c1c(Cl)c(-c2ccccc2O)oc2ccccc12	22 µg/mL (≈ 80.7 µM)
COc1c(OC)c(OC)c2c(=O)cc(-c3ccc(OC(C)C)cc3)oc2c1OC	> 100 µg/mL

Compound	EC50
C[C@@H]1O[C@@H](OC[C@H]2O[C@@H](Oc3c(-c4ccc(O)c(O)c4)oc4cc(O)cc(O)c4c3=O)[C@H](O)[C@@H](O)[C@@H]2O)[C@H](O)[C@H](O)[C@H]1O [RUTIN]	26 µg/mL (≈ 42.6 µM)
C=CCOc1ccc(-c2cc(=O)c3c(OC)c(OC)c(OC)c(OC)c3o2)cc1	26 µg/mL (≈ 65.3 µM)
COc1ccc(-c2oc3cc(O)c(O)c(O)c3c(=O)c2O)cc1OC	27 µg/mL (≈ 78 µM)
O=c1c(Cl)c(-c2ccccc2)oc2ccc(Cl)cc12	> 100 µg/mL
COc1ccc(C2(OC)Oc3cc(OC)ccc3C(=O)C2(O)O)cc1 (stereo unspecified)	2.8 µg/mL (≈ 8.08 µM)
COc1ccc2c(c1)OC(OC)(c1ccccc1)C(O)(O)C2=O (stereo unspecified)	20 µg/mL (≈ 63.2 µM)
COC1(c2ccccc2)Oc2ccccc2C(=O)C1(O)O (stereo unspecified)	19 µg/mL (≈ 66.4 µM)
COc1ccc2c(=O)c(O)c(-c3ccccc3)oc2c1	26 µg/mL (≈ 96.9 µM)
O=c1c(O)c(-c2ccc(O)c(O)c2)oc2cc(O[C@@H]3O[C@H](CO)[C@@H](O)[C@H](O)[C@H]3O)cc(O)c12 [QUERCIMERITRIN]	28 µg/mL (≈ 60.3 µM)
Cc1ccc2oc(-c3ccccc3)c(Cl)c(=O)c2c1	> 100 µg/mL
COc1c(-c2ccc(O)c(O)c2)oc2cc(O)cc(O)c2c1=O [3-O-METHYLQUERCETIN]	17 µg/mL (≈ 53.8 µM)
COc1cc2c(=O)cc(-c3ccc(O)c(O)c3)oc2cc1O	18 µg/mL (≈ 59.9 µM)
O=c1c(O)c(-c2cc(O)c(O)c(O)c2)oc2cc(O)ccc12 [ROBINETIN]	25 µg/mL (≈ 82.7 µM)
CS(=O)(=O)Oc1cccc(-c2cc(=O)c3ccccc3o2)c1	> 100 µg/mL
Cc1ccc(C(C)C)c(-c2oc3ccc(Cl)cc3c(=O)c2Cl)c1	60 µg/mL (≈ 173 µM)

What follows are compounds tested on L1210 (assay: In vivo antitumor activity against mouse L1210 cells). Conditions: not given.
Type: functional, organism-based

Compound	Activity
COc1ccc(-c2oc3cc(O)cc(O)c3c(=O)c2OC)cc1OC	inactive
CC(=O)Oc1ccc2c(=O)c(-c3ccccc3)c(C)oc2c1	inactive
COC1(O)C(=O)c2ccccc2OC1(OC)c1ccccc1 (stereo unspecified)	inactive
COc1ccc(-c2cc(=O)c3c(C)cc(O)cc3o2)cc1	inactive
COc1ccc(-c2coc3cc(O)ccc3c2=O)cc1	inactive
CC(=O)Oc1cc(OC(C)=O)c2c(=O)c(OC(C)=O)c(-c3ccc(OC(C)=O)c(OC(C)=O)c3)oc2c1	inactive
COc1cc(-c2cc(=O)c3ccc(O)cc3o2)cc(OC)c1OC	inactive
COc1ccc(C2(OC)Oc3ccccc3C(=O)C2(O)OC)cc1OC (stereo unspecified)	inactive
COc1ccc(-c2cc(=O)c3c(O)cccc3o2)cc1	inactive
COc1cc(C2Oc3cc(OC)c(OC)c(O)c3C(=O)C2OC)ccc1O (stereo unspecified)	inactive
COc1cc(-c2cc(=O)c3c(C)cc(O)cc3o2)cc(OC)c1OC	inactive
COc1cc(O)c(C2CC(=O)c3c(O)cc(O[C@@H]4O[C@H](CO[C@@H]5O[C@@H](C)[C@H](O)[C@@H](O)[C@H]5O)[C@@H](O)[C@H](O)[C@H]4O)cc3O2)cc1O (stereo partly specified)	inactive
COc1ccc(-c2oc3cc(CC=C(C)C)cc(O)c3c(=O)c2OC)cc1OC	inactive
COc1cc(OC)c2c(=O)c(O)c(-c3ccc(OC)c(OC)c3)oc2c1	inactive
COc1ccc(-c2oc3ccccc3c(=O)c2O)cc1	inactive
COc1ccc(-c2cc(=O)c3c(C)cc(O)cc3o2)cc1OC	inactive
COc1ccc(-c2oc3ccccc3c(=O)c2O)cc1OC	inactive
COc1ccc(-c2cc(=O)c3ccc(O)cc3o2)cc1OC	inactive
COc1ccc(-c2coc3cc(O)cc(O)c3c2=O)cc1	inactive
COc1ccc2c(=O)c(O)c(-c3ccc(OC)c(OC)c3)oc2c1	inactive

Compound	Activity
COc1cc(OC)c(-c2cc(=O)c3c(O)cc(O)cc3o2)c(OC)c1	inactive
COc1ccc(-c2cc(=O)c3c(O)cc(C)cc3o2)cc1OC	inactive
O=c1cc(-c2ccccc2)oc2c(O)c(O)cc(O)c12	inactive
COC1(O)C(=O)c2ccccc2OC1(OC)c1ccc(Cl)cc1 (stereo unspecified)	inactive
COc1cc(-c2cc(=O)c3c(O)cc(C)cc3o2)cc(OC)c1OC	inactive
COc1cc(O)c2c(=O)c(OC)c(-c3ccc(O)c(OC)c3)oc2c1	inactive
COc1cc(-c2cc(=O)c3c(O)cc(O)cc3o2)cc(OC)c1OC	inactive
O=C1C(=O)C(c2ccccc2)Oc2ccccc21 (stereo unspecified)	inactive
O=c1c(-c2ccccc2)coc2ccccc12	inactive
COC1(c2ccccc2)Oc2ccccc2C(=O)C1(O)C[N+](=O)[O-] (stereo unspecified)	inactive
COc1ccc(-c2cc(=O)c3c(O)cc(O)cc3o2)cc1OC	inactive
O=c1cc(-c2ccc3c(c2)OCO3)oc2ccccc12	inactive
Cc1ccc(-c2oc3ccccc3c(=O)c2O)cc1	inactive
COc1cc2oc(-c3ccc(O)cc3)c(O[C@@H]3O[C@@H](C)[C@H](O)[C@@H](O)[C@H]3O)c(=O)c2c(O)c1OC	inactive
COc1cc(-c2cc(=O)c3ccc(O)c([C@@H]4O[C@H](CO)[C@@H](O)[C@H](O)[C@H]4O)c3o2)ccc1O	inactive
C[C@@H]1O[C@@H](OC[C@H]2O[C@@H](Oc3c(-c4ccc(O)c(O)c4)oc4c(O)cc(O)cc4c3=O)[C@H](O)[C@@H](O)[C@@H]2O)[C@H](O)[C@H](O)[C@H]1O	inactive
COc1ccc(-c2cc(=O)c3ccc(O)cc3o2)cc1	inactive
COc1ccc2c(c1)OC(OC)(c1ccc(OC)c(OC)c1)C(O)(OC)C2=O (stereo unspecified)	inactive
C[C@@H]1O[C@@H](OC[C@H]2O[C@@H](Oc3ccc4c(=O)c(-c5ccc6c(c5)OCO6)coc4c3)[C@H](O)[C@@H](O)[C@@H]2O)[C@H](O)[C@@H](O)[C@H]1O	inactive
CC(=O)c1c(O)cc(O)cc1-c1cc(=O)c2c(O)ccc(C(C)=O)c2o1	inactive

— ChEMBL document CHEMBL1151292, “Antineoplastic activity and cytotoxicity of flavones, isoflavones, and flavanones” (1979)
